Data taken from patent US20260042764A1, “COMPOSITIONS AND METHODS FOR INHIBITION OF KRAS” (TheRas, Inc., priority 2022, published 2026).

What was measured:
SW1900 cells (KRAS G12D) [1] = assay: Cell-based pERK HTRF assay in SW1900 cells (Biological Example 5); details: Homo sapiens, SW1990, SW1990 cells (text: SW1900, KRAS G12D)
Protocol: (§1) Biological Example 5: Cell-based PERK HTRF assay in AsPC-1, SW1900, HPAC, Capan-2, RKN, H358, HCT116, KP-2, H1573, A549, MKN1, and HT1080 cells
(§2) The inhibition of ERK phosphorylation, as measured using the HTRF Advanced Phospho-ERK 1/2 (Thr202/Tyr204) Detection Assay kit (Perkin Elmer), was used to determine the effectiveness of test compounds in disrupting KRAS-driven protein/effector signaling in cells.
(§3) On day 1, cells were seeded into 96-well plates at 2.5×10^4 cells/well in 100 μL of complete growth media supplemented with 10% fetal bovine serum (FBS) and incubated at 37° C., in the presence of 5% CO2.
(§4) On day 2, cells were treated with compounds diluted in DMSO at 0.25% final DMSO concentration. Compounds were dosed in a 9-point concentration curve with three-fold dilution between concentrations. Cells were incubated in the presence of compound for two hours at 37° C. Following this treatment period, cells were harvested by aspirating the media, adding 40 μL of kit-supplied 1x lysis buffer per well, and shaking for 30 minutes at 250 rpm at room temperature.
(§5) Following cell lysis, samples were homogenized by pipetting up and down twenty times and 16 μL of cell lysate per well was transferred from the 96-well cell culture plate to two wells of a 384-well detection plate. A complete detection buffer was prepared by diluting D2 and Eu Cryptate antibodies 1:20 in kit-provided detection solution, 4 μL of complete detection buffer was then added to each well with lysate. Plates were incubated with gentle rocking for 24 hours at 4° C.
(§6) Following this incubation period, plates were centrifuged at 500×g for one minute and analyzed on a CLARIOstar plate reader. Data was imported into Microsoft Excel and the signal from the 665 nm channel was divided by the signal from the 620 nm channel. % pERK was calculated as: […]
(§7) Data was imported to the Prism software package (Graphpad) and EC50 values were calculated using the log (inhibitor) vs, response—variable slopc (Four parameters) model.

HPAC cells (KRAS G12D) [2] = assay: Cell-based pERK HTRF assay in HPAC cells (Biological Example 5); details: Homo sapiens, HPAC
Protocol: as §1, §2, §3, §4, §5, §6, §7

[3] = test system: Capan-2 cells (KRAS G12V); assay: Cell-based pERK HTRF assay in Capan-2 cells (Biological Example 5); details: Homo sapiens, Capan-2, Capan-2 (KRAS G12V) cells
Protocol: as §1, §2, §3, §4, §5, §6, §7

RKN cells (KRAS G12V) [4] = assay: Cell-based pERK HTRF assay in RKN cells (Biological Example 5)
Protocol: as §1, §2, §3, §4, §5, §6, §7

H358 cells (KRAS G12C) [5] = assay: Cell-based pERK HTRF assay in H358 cells (Biological Example 5); details: Homo sapiens, NCI-H358, H358 (KRAS G12C) cells
Protocol: as §1, §2, §3, §4, §5, §6, §7

[6] = test system: MKN1 cells (KRAS amplification); assay: Cell-based pERK HTRF assay in MKN1 cells (Biological Example 5); details: Homo sapiens, MKN-1, MKN cells (MKN1, KRAS amplification)
Protocol: as §1, §2, §3, §4, §5, §6, §7

AsPC-1 cells (KRAS G12D) = assay: 3D Cell viability assay in AsPC-1 cells (Biological Example 6); format: cell-based; details: Homo sapiens, ASPC1; AsPC-1 (KRAS G12D) spheroids, 72 hours
Protocol: (§8) Biological Example 6: 3D Cell viability assay in AsPC-1, SW1900, HPAC, Capan-2, RKN, H358, HCT116, KP-2, H1573, A549, MKN1, and HT1080 cells
(§9) The inhibition of cellular viability as a result of test compound treatment in a spheroid assay was measured using the CellTiter-Glow 3D Cell Viability Assay (Promega).
(§10) On Day 1, 1000 cells per well were seeded in 150 μL of complete growth media supplemented with 10% fetal bovine serum (FBS) and incubated at 37° C., in the presence of 5% CO2 in 96-well ultra-low attachment microplates (Corning) for 48 hours undisturbed to allow spheroids to form.
(§11) Following spheroid formation, cells were treated with compounds diluted in DMSO at 0.25% final DMSO concentration. Compounds were dosed in a 9-point concentration curve with three-fold dilution between concentrations. Cells were incubated in the presence of compound for 72 hours at 37° C., in the presence of 5% CO2.
(§12) Following this incubation period, the kit-provided CTG reagent was allowed to equilibrate for 30 minutes at room temperature, 150 μL of equilibrated CTG reagent was added to each well, and the plate was sealed before shaking at 250 rpm for 10 minutes at room temperature to lyse the cells, 150 μL of lysate per well was transferred to a 96-well plate and luminescence was read on a CLARIOstar plate reader.
(§13) Data was imported into the Prism software package (Graphpad) and EC50 values were calculated using the log (inhibitor) vs, response—variable slope (Four parameters) model.

SW1900 cells (KRAS G12D) [7] = assay: 3D Cell viability assay in SW1900 cells (Biological Example 6); format: cell-based; details: Homo sapiens; SW1990 (text: SW1900, KRAS G12D) spheroids, 72 hours
Protocol: as §8, §9, §10, §11, §12, §13

HPAC cells (KRAS G12D) [8] = assay: 3D Cell viability assay in HPAC cells (Biological Example 6); format: cell-based; details: Homo sapiens, HPAC, 72 h, HPAC (KRAS G12D) spheroids
Protocol: as §8, §9, §10, §11, §12, §13

[9] = test system: Capan-2 cells (KRAS G12V); assay: 3D Cell viability assay in Capan-2 cells (Biological Example 6); format: cell-based; details: Homo sapiens; Capan-2 (KRAS G12V) spheroids, 72 hours
Protocol: as §8, §9, §10, §11, §12, §13

RKN cells (KRAS G12V) [10] = assay: 3D Cell viability assay in RKN cells (Biological Example 6); format: cell-based; details: RKN (KRAS G12V) spheroids, 72 hours
Protocol: as §8, §9, §10, §11, §12, §13

H358 cells (KRAS G12C) [11] = assay: 3D Cell viability assay in H358 cells (Biological Example 6); format: cell-based; details: Homo sapiens, NCI-H358; H358 (KRAS G12C) spheroids, 72 hours
Protocol: as §8, §9, §10, §11, §12, §13

[12] = test system: MKN1 cells (KRAS amplification); assay: 3D Cell viability assay in MKN1 cells (Biological Example 6); format: cell-based; details: Homo sapiens, MKN-1; MKN (MKN1, KRAS amplification) spheroids, 72 hours
Protocol: as §8, §9, §10, §11, §12, §13

HCT116 cells (KRAS G13D) = assay: 3D Cell viability assay in HCT116 cells (Biological Example 6); format: cell-based; details: Homo sapiens, HCT-116; HCT116 (KRAS G13D) spheroids, 72 hours
Protocol: as §8, §9, §10, §11, §12, §13

IC50 (SW1900 cells (KRAS G12D) [1]) | IC50 (HPAC cells (KRAS G12D) [2]) | IC50 [3] | IC50 (RKN cells (KRAS G12V) [4]) | IC50 (H358 cells (KRAS G12C) [5]) | IC50 [6] | IC50 (AsPC-1 cells (KRAS G12D)) | IC50 (SW1900 cells (KRAS G12D) [7]) | IC50 (H358 cells (KRAS G12C) [11]) | IC50 [12] | IC50 (HCT116 cells (KRAS G13D)) | SMILES | IC50 (HPAC cells (KRAS G12D) [8]) | IC50 [9] | IC50 (RKN cells (KRAS G12V) [10])
≤ 100 nM | ≤ 100 nM | ≤ 100 nM | ≤ 100 nM | ≤ 100 nM | ≤ 100 nM | ≤ 100 nM | ≤ 100 nM | ≤ 100 nM | ≤ 100 nM | – | CCN(c1nc(OC[C@@]23CCCN2C[C@H](F)C3)nc2c(F)c(-c3ccc(F)c4sc(N)c(C#N)c34)c(C(F)(F)F)cc12)[C@H]1CCN(C(=O)N2CC(F)C2)C1 (atropisomer, axis not shown) [Compound 606] | 100 to 1000 nM | ≤ 100 nM | ≤ 100 nM
– | – | ≤ 100 nM | – | – | – | – | 100 to 1000 nM | ≤ 100 nM | – | 100 to 1000 nM | N#Cc1c(N)sc2c(F)ccc(-c3c(C(F)(F)F)cc4c(N5CC6CC5CO6)nc(OC[C@@]56CCCN5C[C@H](F)C6)nc4c3F)c12 (stereo partly shown) [Compound 147] | 100 to 1000 nM | – | –
≤ 100 nM | 100 to 1000 nM | ≤ 100 nM | ≤ 100 nM | ≤ 100 nM | ≤ 100 nM | ≤ 100 nM | ≤ 100 nM | ≤ 100 nM | ≤ 100 nM | – | CCN(c1nc(OC[C@@]23CCCN2C[C@H](F)C3)nc2c(F)c(-c3ccc(F)c4sc(N)c(C#N)c34)c(C(F)(F)F)cc12)[C@H]1C[C@H](C)N(C(=O)N2CC(OC)C2)C1 (atropisomer, axis not shown) [Compound 764] | > 1000 nM | ≤ 100 nM | ≤ 100 nM

Continued, compound first:

SMILES | IC50 (SW1900 cells (KRAS G12D) [1]) | IC50 (HPAC cells (KRAS G12D) [2]) | IC50 [3] | IC50 (RKN cells (KRAS G12V) [4]) | IC50 (H358 cells (KRAS G12C) [5]) | IC50 [6] | IC50 (AsPC-1 cells (KRAS G12D)) | IC50 (SW1900 cells (KRAS G12D) [7]) | IC50 (H358 cells (KRAS G12C) [11]) | IC50 [12] | IC50 (HCT116 cells (KRAS G13D)) | IC50 (HPAC cells (KRAS G12D) [8]) | IC50 [9] | IC50 (RKN cells (KRAS G12V) [10])
C/C=C/C(=O)N1CC[C@H](N(CC)c2nc(OC[C@@]34CCCN3C[C@H](F)C4)nc3c(F)c(-c4ccc(F)c5sc(N)c(C#N)c45)c(C(F)(F)F)cc23)C1 (atropisomer, axis not shown) [Compound 674] | ≤ 100 nM | ≤ 100 nM | ≤ 100 nM | ≤ 100 nM | ≤ 100 nM | ≤ 100 nM | ≤ 100 nM | ≤ 100 nM | ≤ 100 nM | ≤ 100 nM | – | ≤ 100 nM | ≤ 100 nM | ≤ 100 nM
CCN(c1nc(OC[C@@]23CCCN2C[C@H](F)C3)nc2c(F)c(-c3ccc(F)c4sc(N)c(C#N)c34)c(C(F)(F)F)cc12)[C@H]1C[C@H](C)N(C(=O)OC)C1 (atropisomer, axis not shown) [Compound 704] | ≤ 100 nM | – | ≤ 100 nM | ≤ 100 nM | ≤ 100 nM | ≤ 100 nM | ≤ 100 nM | ≤ 100 nM | ≤ 100 nM | ≤ 100 nM | – | – | ≤ 100 nM | ≤ 100 nM
